The values below come from paper PMC5406460 (Frontiers in Microbiology, 2017).

One data set addresses ClpP1P2 (Mycobacterium bovis, UniProt P0A527+P63784). Description: cell-based. Type of data set: cell-based, M. bovis BCG. Particulars: for IC50: 24 h, read-out: Bacterial Clp IC50.
In the next data set the target is bacterial proteasome (Mycobacterium bovis, UniProt A1KKF3). The data set can be described thus: cell-based. More on the design: species or system M. bovis BCG.
A further data set relates to M. bovis BCG. Description: organism not typed. Format: cell-based. The conditions noted are these: 120 h, read-out: M. bovis MIC50.
Data set [1] deals with M. tuberculosis H37Rv. The data set can be described thus: Turbidity-based growth inhibition (MIC50), M. tuberculosis H37Rv. Particulars: Mycobacterium tuberculosis, 120 h, 50% growth inhibition, 5 days, OD600. Type of data set: cell-based.
In data set [2] the test system is M. tuberculosis H37Rv. Description: Minimum bactericidal concentration (MBC99) by CFU enumeration. Format: cell-based. Particulars: for MBC: Mycobacterium tuberculosis, H37RV, 120 h, concentration killing 99% of bacteria (100-fold kill), 5 days treatment.
The next data set in a line: in vitro. The conditions noted are these: human.
Another data set deals with human proteasome (Homo sapiens, UniProt P28074). Description: cell-based.

Converted amounts (≈) assume the structure as drawn. Non-standard residues stand in square brackets, D forms with d. Residues, ends and D or L forms follow the SMILES beside them. ξ: configuration not given here. *: point of attachment. ξF = NC(Cc1ccccc1)C(=O)O; Cbz = O=C(OCc1ccccc1)*; CH2Cl = ClC* Where only a bound is given, the exact number is not on record here.

bacterial proteasome, sequence (A1KKF3 whole entry, looked up): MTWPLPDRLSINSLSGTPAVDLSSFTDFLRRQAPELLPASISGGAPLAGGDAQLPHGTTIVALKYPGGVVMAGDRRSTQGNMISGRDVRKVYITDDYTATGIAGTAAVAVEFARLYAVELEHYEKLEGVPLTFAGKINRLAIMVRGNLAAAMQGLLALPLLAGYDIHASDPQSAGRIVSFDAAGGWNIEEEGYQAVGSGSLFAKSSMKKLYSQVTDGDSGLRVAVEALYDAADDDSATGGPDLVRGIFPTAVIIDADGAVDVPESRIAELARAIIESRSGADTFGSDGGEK

With `CC(C)C[C@H](NC(=O)[C@H](Cc1ccccc1)NC(=O)c1cnccn1)C(=O)CCl` [Pyr-FL-CMK, N-((S)-1-(((S)-1-chloro-5-methyl-2-oxohexan-3-yl)amino)-1-oxo-3-phenylpropan-2-yl)pyrazine-2-carboxamide], the “loss of potency against ClpP1P2 compared to Bortezomib” value on ClpP1P2 (25 vs. 1.6 μM) is about 15 fold. In addition, the half-maximal inhibitory concentration (IC50) (commonly the point on the concentration scale where inhibition reaches its midpoint) is 25 µM on ClpP1P2, 25 µM at bacterial proteasome and over 500 µM at human proteasome. Further, the MIC50 – broadly, an inhibitory concentration at the 50% level, which refers to growth in some studies and to a panel of isolates in others – in the data set on M. bovis BCG was 20 µM (≈ 8.34 µg/mL); in the data set on M. tuberculosis H37Rv [1], 25 µM (≈ 10.4 µg/mL). The minimum bactericidal concentration (MBC) (commonly the lowest tested concentration that kills the bacteria rather than only halting them) against M. tuberculosis H37Rv [2] was determined as 100 µM (≈ 41.7 µg/mL). The “reduction in bactericidal potency against M. tuberculosis” value with M. tuberculosis H37Rv [2] (compared to Bortezomib (MBC99)) was “two-fold”. For the same compound, in “in vitro”, the selectivity ratio is at least 20.

For the compound `O=C(CNC(=O)OCc1ccccc1)NCC(=O)NC(Cc1ccccc1)C(=O)CCl` (stereo not drawn) [Z-GGF-CMK, Carboxybenzyl-glycine-glycine-phenylalanine-CMK] (Cbz-Gly-Gly-[ξF]-CH2Cl), the IC50 on ClpP1P2 is 50 µM; on bacterial proteasome it was 50 µM; against human proteasome it was over 500 µM. Moreover, the MIC50 in the data set on M. bovis BCG and against M. tuberculosis H37Rv [1] was 30 µM (≈ 13.4 µg/mL) throughout.

Regarding `CC(C)C[C@H](NC(=O)CNC(=O)OCc1ccccc1)C(=O)NC(Cc1ccccc1)C(=O)CCl` (stereo partly drawn) [Z-GLF-CMK, Carboxybenzyl-glycine-leucine-phenylalanine-CMK] (Cbz-Gly-Leu-[ξF]-CH2Cl), the IC50 at ClpP1P2 is 25 µM; on bacterial proteasome, 35 µM; against human proteasome, over 500 µM. Further, the MIC50 in the data set on M. bovis BCG and in the data set with M. tuberculosis H37Rv [1] was 20 µM (≈ 10 µg/mL) throughout. In addition, the MBC in the data set with M. tuberculosis H37Rv [2] is 200 µM (≈ 100 µg/mL).

With `CC(C)C[C@H](NC(=O)[C@H](Cc1ccccc1)NC(=O)c1cnccn1)B(O)O` [Pyr-FL-BA, Pyrazine-Phenylalanine-Leucine-Boronic acid], the IC50 is 1.6 µM on ClpP1P2 and 0.8 µM at bacterial proteasome. Besides, the MIC50 worked out at 0.8 µM (≈ 0.307 µg/mL) in the data set with M. bovis BCG and 4 µM (≈ 1.54 µg/mL) with M. tuberculosis H37Rv [1]. In the data set with M. tuberculosis H37Rv [2], this compound gave a minimal bactericidal concentration (MBC) of 50 µM (≈ 19.2 µg/mL).
